According to PubChem BioAssay AID2060499 (Molecular Pharmacology Branch, DTP, NCI, 2025):

Test system: 777334-354-R2-J4-PDC tumor spheroids with HUVEC/MSC, viability
Test: Anticancer human tumor 777334-354-R2-J4-PDC patient-derived pancreatic adenocarcinoma cell line growth inhibition [GQUAD]
Conditions: for IC50: curve of first compound; for viability, T/C: stronger effect = lower value
From the text: DNA G-quadruplex Stabilizer Agents in Combinations in Complex Spheroids
A high-throughput screen of multi-cell type tumor spheroids was designed to identify active combinations of DNA G-quadruplex stabilizer agents and targeted small molecules. Complex spheroids include a stromal component modeled by human endothelial cells (HUVEC) and fibroblasts modeled by human mesenchymal stem cells (MSCs). The concentration ranges selected for each drug and investigational agent were based upon clinically achievable concentrations if the clinical Cmax of the agent was known.
Compounds. The drugs and investigational agents: pidnarulex (CX-5461; NSC782164), APTO-253 (NSC789042), BRACO-19 (NSC847499), peposertib (NSC802822), ceralasertib (NSC780249), elimusertib (NSC800525), camonsertib (NSC841442), AZD-1390 (NSC803789), olaparib (NSC753686), talazoparib (NSC767125), ART-558 (NSC835418), sotorasib (NSC818433), MRTX-1133 (NSC836407), SN-38 (NSC673596), topotecan (NSC609699), etoposide (NSC141540), doxorubicin (NSC123127), gemcitabine (NSC613327), 5-fluorouracil (NSC19893), paclitaxel (NSC125973), vemurafenib (NSC761431), panobinostat (NSC761190), R-306465 (JNJ-16241199; NSC773264), adavosertib (NSC754352), TP-3654 (NSC805149), carboplatin (NSC241240), KSQ-4279 (NSC840948), and staurosporine (NSC755774) were obtained from the National Cancer Institute (NCI) Developmental Therapeutics Program Chemical Repository (34). The FDA-approved anticancer drug set is available from the NCI Developmental Therapeutics Program. […] The stock solutions were prepared in dimethyl sulfoxide (DMSO, Sigma-Aldrich, St. Louis, MO, cat. D2650) at 800-fold the tested concentration and stored at -70 degrees C prior to their use. All drugs and investigational agents were tested over a range starting from a high concentration at or near the clinical Cmax and decreasing in half-log increments. If the clinical Cmax for an agent had not been determined, the highest concentration tested was 10 microM.
2.3 Cell Culture. All cells were maintained in an incubator at 37 degrees C and 5% CO2 with 95% humidity. The PDC lines were cultured according to standard operating procedures established by the NCI PDMR. All PDCs were thawed and cultured in Matrigel-coated flasks prepared with a working solution of 1X Ham's F-12 nutrient mix, without supplementation (Invitrogen, cat. 11765054), 100 U/mL penicillin-streptomycin (Invitrogen, cat. 15140122), and 2.5% Matrigel (Corning Inc., cat. 354248) for the first three passages. The 857933-349-R-J2-PDC line was cultured in 6C/Colon 1B media, which includes advanced DMEM/F-12 (Thermo Fisher Scientific, cat. 12634028), 10 mM HEPES (Thermo Fisher Scientific, cat. 15630080), 1X GlutaMAX supplement (Thermo Fisher Scientific, cat. 35050061), 0.1 mg/mL primocin (InvivoGen, cat. ant-pm-2), 10% defined fetal bovine serum, heat inactivated (HyClone Laboratories Inc., cat. SH30070.03HI), 50% L-WRN conditioned media (ATCC, cat. CRL-3276), 1.25 mM N-Acetyl-L-cysteine (Sigma-Aldrich, cat. A9165), 10 mM nicotinamide (Sigma-Aldrich, cat. N0636), 1X B-27 supplement (Thermo Fisher Scientific, cat. 17504044), 1X N-2 supplement (Thermo Fisher Scientific, cat. 17502048), 10 microM Y-27632 dihydrochloride (Tocris Bioscience, cat. 1254), and 50 ng/mL human EGF recombinant protein (Thermo Fisher Scientific, cat. PHG0311). The 485176-168-R4-J1-PDC line was cultured in Panc media, which includes all 6C/Colon 1B media components plus 100 ng/mL human FGF-10 (Thermo Fisher Scientific, cat. 100-26), 500 nM SB-431542 (Selleckchem, cat. S1067), and gastrin (Tocris, cat. 3006).
[…]

[1] = second compound 0.0316 µM, first compound 0.0316 µM
[2] = second compound 0.0316 µM, first compound 0.1 µM
[3] = second compound 0.0316 µM, first compound 0.316 µM
[4] = second compound 0.0316 µM, first compound 1 µM
[5] = second compound 0.0316 µM, first compound 3.16 µM
[6] = second compound 0.0316 µM, first compound 10 µM
[7] = second compound 0.1 µM, first compound 0.0316 µM
[8] = second compound 0.1 µM, first compound 0.1 µM
[9] = second compound 0.1 µM, first compound 0.316 µM
[10] = second compound 0.1 µM, first compound 1 µM
[11] = second compound 0.1 µM, first compound 3.16 µM
[12] = second compound 0.1 µM, first compound 10 µM
[13] = second compound 0.316 µM, first compound 0.0316 µM
[14] = second compound 0.316 µM, first compound 0.1 µM
[15] = second compound 0.316 µM, first compound 0.316 µM
[16] = second compound 0.316 µM, first compound 1 µM
[17] = second compound 0.316 µM, first compound 3.16 µM
[18] = second compound 0.316 µM, first compound 10 µM
[19] = second compound 1 µM, first compound 0.0316 µM
[20] = second compound 1 µM, first compound 0.1 µM
[21] = second compound 1 µM, first compound 0.316 µM
[22] = second compound 1 µM, first compound 1 µM
[23] = second compound 1 µM, first compound 3.16 µM
[24] = second compound 1 µM, first compound 10 µM
[25] = second compound 3.16 µM, first compound 0.0316 µM
[26] = second compound 3.16 µM, first compound 0.1 µM
[27] = second compound 3.16 µM, first compound 0.316 µM
[28] = second compound 3.16 µM, first compound 1 µM
[29] = second compound 3.16 µM, first compound 3.16 µM
[30] = second compound 3.16 µM, first compound 10 µM
[31] = second compound 10 µM, first compound 0.0316 µM
[32] = second compound 10 µM, first compound 0.1 µM
[33] = second compound 10 µM, first compound 0.316 µM
[34] = second compound 10 µM, first compound 1 µM
[35] = second compound 10 µM, first compound 3.16 µM
[36] = second compound 10 µM, first compound 10 µM
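Further: spheroids exposed to compounds for 7 days before readout.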

Which IC50 (second compound 0.0316 µM) does the source give for `CC1COCCN1c1cc(C2(O)CC3CCC(C2)O3)c2cnn(-c3ccn[nH]3)c2n1` (centres undefined) + CN(C)c1ccc(Nc2c3ccc(NC(=O)CCN4CCCC4)cc3nc3cc(NC(=O)CCN4CCCC4)ccc23)cc1 here?
The IC50 was 599 nM.

And the IC50 (second compound 0.1 µM)?
Its IC50 is 644 nM.

And the IC50 (second compound 0.316 µM)?
Its IC50 is 599 nM.

What about the IC50 (second compound 1 µM) of the same molecule?
Its IC50 is 348 nM.

And the IC50 (second compound 3.16 µM)?
Its IC50 is 296 nM.

And the IC50 (second compound 10 µM)?
Its IC50 is 189 nM.

What about the viability, T/C [1] of the same molecule?
The viability, T/C was 96.5%.

And the viability, T/C [2]?
The viability, T/C was 79.1%.

What about the viability, T/C [3] of the same molecule?
The viability, T/C was 59.8%.

And the viability, T/C [4]?
The viability, T/C was 40.5%.

What about the viability, T/C [5] of the same molecule?
The viability, T/C was 32%.

What about the viability, T/C [6] of the same molecule?
Its viability, T/C is 20.4%.

And the viability, T/C [7]?
The viability, T/C was 105%.

And the viability, T/C [8]?
The viability, T/C was 80.3%.

And the viability, T/C [9]?
The viability, T/C was 58.8%.

What about the viability, T/C [10] of the same molecule?
Its viability, T/C is 43.3%.

What about the viability, T/C [11] of the same molecule?
The viability, T/C was 33.9%.

And the viability, T/C [12]?
The viability, T/C was 20%.

And the viability, T/C [13]?
The viability, T/C was 96.3%.

What about the viability, T/C [14] of the same molecule?
Its viability, T/C is 75.4%.

And the viability, T/C [15]?
The viability, T/C was 53.2%.

And the viability, T/C [16]?
The viability, T/C was 45.8%.

And the viability, T/C [17]?
The viability, T/C was 33.4%.

What about the viability, T/C [18] of the same molecule?
The viability, T/C was 19%.

And the viability, T/C [19]?
Its viability, T/C is 83%.

What about the viability, T/C [20] of the same molecule?
Its viability, T/C is 63%.

What about the viability, T/C [21] of the same molecule?
The viability, T/C was 53%.

What about the viability, T/C [22] of the same molecule?
The viability, T/C was 36%.

And the viability, T/C [23]?
The viability, T/C was 31.4%.

And the viability, T/C [24]?
Its viability, T/C is 19.1%.

What about the viability, T/C [25] of the same molecule?
The viability, T/C was 87.9%.

What about the viability, T/C [26] of the same molecule?
Its viability, T/C is 68.8%.

What about the viability, T/C [27] of the same molecule?
The viability, T/C was 46.7%.

And the viability, T/C [28]?
The viability, T/C was 34.7%.

What about the viability, T/C [29] of the same molecule?
Its viability, T/C is 26.9%.

And the viability, T/C [30]?
Its viability, T/C is 16.5%.

And the viability, T/C [31]?
The viability, T/C was 74.7%.

And the viability, T/C [32]?
The viability, T/C was 56.1%.

And the viability, T/C [33]?
Its viability, T/C is 45.8%.

What about the viability, T/C [34] of the same molecule?
Its viability, T/C is 29.7%.

What about the viability, T/C [35] of the same molecule?
Its viability, T/C is 25.5%.

What about the viability, T/C [36] of the same molecule?
The viability, T/C was 16%.

For `CC1COCCN1c1cc(C2(S(C)(=N)=O)CC2)nc(-c2ccnc3[nH]ccc23)n1` (centres undefined) + CN(C)c1ccc(Nc2c3ccc(NC(=O)CCN4CCCC4)cc3nc3cc(NC(=O)CCN4CCCC4)ccc23)cc1, which IC50 (second compound 0.0316 µM) is on record?
Its IC50 is > 10000 nM.

What about the IC50 (second compound 0.1 µM) of the same molecule?
The IC50 was > 10000 nM.

And the IC50 (second compound 0.316 µM)?
Its IC50 is > 10000 nM.

What about the IC50 (second compound 1 µM) of the same molecule?
Its IC50 is 8960 nM.

And the IC50 (second compound 3.16 µM)?
Its IC50 is 7800 nM.

What about the IC50 (second compound 10 µM) of the same molecule?
Its IC50 is 8890 nM.

And the viability, T/C [1]?
The viability, T/C was 89%.

What about the viability, T/C [2] of the same molecule?
Its viability, T/C is 85.8%.

And the viability, T/C [3]?
Its viability, T/C is 98.5%.

What about the viability, T/C [4] of the same molecule?
Its viability, T/C is 86.8%.

And the viability, T/C [5]?
Its viability, T/C is 79.3%.

And the viability, T/C [6]?
The viability, T/C was 58.3%.

And the viability, T/C [7]?
The viability, T/C was 107%.

What about the viability, T/C [8] of the same molecule?
Its viability, T/C is 84.6%.

What about the viability, T/C [9] of the same molecule?
Its viability, T/C is 98.2%.

And the viability, T/C [10]?
Its viability, T/C is 95.2%.

What about the viability, T/C [11] of the same molecule?
The viability, T/C was 79.7%.

What about the viability, T/C [12] of the same molecule?
The viability, T/C was 57.1%.

And the viability, T/C [13]?
The viability, T/C was 92.5%.

And the viability, T/C [14]?
Its viability, T/C is 95.9%.

What about the viability, T/C [15] of the same molecule?
The viability, T/C was 100%.

And the viability, T/C [16]?
The viability, T/C was 82.9%.

And the viability, T/C [17]?
Its viability, T/C is 85.2%.

And the viability, T/C [18]?
Its viability, T/C is 50.5%.

And the viability, T/C [19]?
The viability, T/C was 90.5%.

What about the viability, T/C [20] of the same molecule?
The viability, T/C was 79.8%.

What about the viability, T/C [21] of the same molecule?
Its viability, T/C is 74.7%.

What about the viability, T/C [22] of the same molecule?
The viability, T/C was 83.9%.

What about the viability, T/C [23] of the same molecule?
Its viability, T/C is 79.5%.

And the viability, T/C [24]?
Its viability, T/C is 46.9%.

And the viability, T/C [25]?
Its viability, T/C is 80.5%.

What about the viability, T/C [26] of the same molecule?
The viability, T/C was 82.6%.

And the viability, T/C [27]?
The viability, T/C was 86.8%.

What about the viability, T/C [28] of the same molecule?
The viability, T/C was 78.6%.

And the viability, T/C [29]?
The viability, T/C was 67.7%.

And the viability, T/C [30]?
The viability, T/C was 45.1%.

And the viability, T/C [31]?
Its viability, T/C is 82.3%.

What about the viability, T/C [32] of the same molecule?
Its viability, T/C is 78.3%.

And the viability, T/C [33]?
Its viability, T/C is 72.7%.

And the viability, T/C [34]?
Its viability, T/C is 67.7%.

What about the viability, T/C [35] of the same molecule?
Its viability, T/C is 65.2%.

And the viability, T/C [36]?
The viability, T/C was 47.5%.
